Reference: US20080292561A1, “Pyrazolo-Pyrimidine Derivatives as Anti-Inflammatory Agents” (Glaxo Group Limited, priority 2005, published 2008)

Test system: NFkB activity
Test: Glucocorticoid mediated transrepression of NFkB activity (A549 cells, ELAM promoter alkaline phosphatase reporter, TNFα)
Assay type: cell-based
Conditions: Homo sapiens, A549, 16 h, Human A549 lung epithelial cells, 3 ng/ml human recombinant TNFα, read-out: pIC50, transrepression of NFkB activity (converted)
Source text: Human A549 lung epithelial cells were engineered to contain a secreted placental alkaline phosphatase gene under the control of the distal region of the NFkB dependent ELAM promoter as previously described in Ray, K. P., Farrow, S., Daly, M., Talabot, F. and Searle, N. “Induction of the E-selectin promoter by interleukin 1 and tumour necrosis factor alpha, and inhibition by glucocorticoids” Biochemical Journal (1997) 328: 707-15.
Compounds were solvated and diluted in DMSO, and transferred directly into assay plates such that the final concentration of DMSO was 0.7%. Following the addition of cells (40K per well), plates were incubated for 1 hr prior to the addition of 3 ng/ml human recombinant TNFα. Following continued incubation for 16 hr, alkaline phosphatase activity was determined by measuring the change in optical density at 405 nm with time following the addition of 0.7 volumes of assay buffer (1 mg/ml p-nitrophenylphosphate dissolved in 1M diethanolamine, 0.28M NaCl, 0.5 mM MgCl2). Dose response curves were constructed from which EC50 values were estimated.

SMILES | IC50 [nM]
CCc1nc(NCC(O)(CC(C)(C)c2cccc3c2OCC3)C(F)(F)F)c2cnn(-c3ccsc3)c2n1 (stereo not shown) [Example 12, 4-(2,3-Dihydro-1-benzofuran-7-yl)-2-({[6-ethyl-1-(3-thienyl)-1H-pyrazolo[3,4-d]pyrimidin-4-yl]amino}methyl)-1,1,1-trifluoro-4-methyl-2-pentanol] | < 100
COc1ccc(F)cc1C(C)(C)CC(O)(CNc1nc(C)nc2c1cnn2-c1ccccc1F)C(F)(F)F (stereo not shown) [Example 14, 1,1,1-Trifluoro-4-[5-fluoro-2-(methyloxy)phenyl]-2-({[1-(2-fluorophenyl)-6-methyl-1H-pyrazolo[3,4-d]pyrimidin-4-yl]amino}methyl)-4-methyl-2-pentanol] | < 100
COc1ccc(F)cc1C(C)(C)CC(O)(CNc1nc(C)nc2c1cnn2-c1ccc(F)cc1F)C(F)(F)F (stereo not shown) [Example 16, 2-({[1-(2,4-Difluorophenyl)-6-methyl-1H-pyrazolo[3,4-d]pyrimidin-4-yl]amino}methyl)-1,1,1-trifluoro-4-[5-fluoro-2-(methyloxy)phenyl]-4-methyl-2-pentanol] | < 100
COc1ccc(F)cc1C(C)(C)CC(O)(CNc1nc(C)nc2c1cnn2-c1cccc(C#N)c1)C(F)(F)F (stereo not shown) [Example 27, 3-(4-{[4-[5-Fluoro-2-(methyloxy)phenyl]-2-hydroxy-4-methyl-2-(trifluoromethyl)pentyl]amino}-6-methyl-1H-pyrazolo[3,4-d]pyrimidin-1-yl)benzonitrile] | < 100
CCc1nc(NCC(O)(CC(C)(C)c2cccc3c2OCC3)C(F)(F)F)c2cnn(-c3ccc(F)nc3)c2n1 (stereo not shown) [Example 11, 4-(2,3-Dihydro-1-benzofuran-7-yl)-2-({[6-ethyl-1-(6-fluoro-3-pyridinyl)-1H-pyrazolo[3,4-d]pyrimidin-4-yl]amino}methyl)-1,1,1-trifluoro-4-methyl-2-pentanol] | < 100
CCc1nc(NCC(O)(CC(C)(C)c2cc(F)ccc2OC)C(F)(F)F)c2cnn(-c3ccc(F)cc3)c2n1 (stereo not shown) [Example 24, 2-({[6-Ethyl-1-(4-fluorophenyl)-1H-pyrazolo[3,4-d]pyrimidin-4-yl]amino}methyl)-1,1,1-trifluoro-4-[5-fluoro-2-(methyloxy)phenyl]-4-methyl-2-pentanol] | < 100
COc1ccc(F)cc1C(C)(C)CC(O)(CNc1nc(C)nc2c1cnn2-c1ccc(F)nc1)C(F)(F)F (stereo not shown) [Example 20, 1,1,1-Trifluoro-4-[5-fluoro-2-(methyloxy)phenyl]-2-({[1-(6-fluoro-3-pyridinyl)-6-methyl-1H-pyrazolo[3,4-d]pyrimidin-4-yl]amino}methyl)-4-methyl-2-pentanol] | < 100
Cc1nc(NCC(O)(CC(C)(C)c2cccc3c2OCC3)C(F)(F)F)c2cnn(-c3ccc(F)cc3)c2n1 (stereo not shown) [Example 3, 4-(2,3-Dihydro-1-benzofuran-7-yl)-1,1,1-trifluoro-2-({[1-(4-fluorophenyl)-6-methyl-1H-pyrazolo[3,4-d]pyrimidin-4-yl]amino}methyl)-4-methyl-2-pentanol] | < 100
COc1ccc(F)cc1C(C)(C)CC(O)(CNc1nc(C)nc2c1cnn2-c1ccc(C#N)cc1)C(F)(F)F (stereo not shown) [Example 21, 4-(4-{[4-[5-Fluoro-2-(methyloxy)phenyl]-2-hydroxy-4-methyl-2-(trifluoromethyl)pentyl]amino}-6-methyl-1H-pyrazolo[3,4-d]pyrimidin-1-yl)benzonitrile] | < 100
CCc1nc(NCC(O)(CC(C)(C)c2cccc3c2OCC3)C(F)(F)F)c2cnn(-c3ccncc3)c2n1 (stereo not shown) [Example 10, 4-(2,3-Dihydro-1-benzofuran-7-yl)-2-({[6-ethyl-1-(4-pyridinyl)-1H-pyrazolo[3,4-d]pyrimidin-4-yl]amino}methyl)-1,1,1-trifluoro-4-methyl-2-pentanol] | < 100
Cc1nc(NCC(O)(CC(C)(C)c2cc(F)ccc2O)C(F)(F)F)c2cnn(-c3ccc(F)cc3F)c2n1 (single isomer, unassigned) [Example 25, 2-[3-({[1-(2,4-Difluorophenyl)-6-methyl-1H-pyrazolo[3,4-d]pyrimidin-4-yl]amino}methyl)-4,4,4-trifluoro-3-hydroxy-1,1-dimethylbutyl]-4-fluorophenol] | < 100
Cc1nc(NCC(O)(CC(C)(C)c2cccc3c2OCC3)C(F)(F)F)c2cnn(-c3ccccc3)c2n1 (stereo not shown) [Example 1, 4-(2,3-Dihydro-1-benzofuran-7-yl)-1,1,1-trifluoro-4-methyl-2-{[(6-methyl-1-phenyl-1H-pyrazolo[3,4-d]pyrimidin-4-yl)amino]methyl}-2-pentanol] | < 100
COc1ccc(F)cc1C(C)(C)CC(O)(CNc1nc(C)nc2c1cnn2-c1ccsc1)C(F)(F)F (stereo not shown) [Example 19, 1,1,1-Trifluoro-4-[5-fluoro-2-(methyloxy)phenyl]-4-methyl-2-({[6-methyl-1-(3-thienyl)-1H-pyrazolo[3,4-d]pyrimidin-4-yl]amino}methyl)-2-pentanol] | < 100
CCc1nc(NCC(O)(CC(C)(C)c2cccc3c2OCC3)C(F)(F)F)c2cnn(-c3ccc(F)cc3F)c2n1 (stereo not shown) [Example 8, 2-({[1-(2,4-Difluorophenyl)-6-ethyl-1H-pyrazolo[3,4-d]pyrimidin-4-yl]amino}methyl)-4-(2,3-dihydro-1-benzofuran-7-yl)-1,1,1-trifluoro-4-methyl-2-pentanol] | < 100
CCc1nc(NCC(O)(CC(C)(C)c2cccc3c2OCC3)C(F)(F)F)c2cnn(-c3ccccc3)c2n1 (stereo not shown) [Example 5, 4-(2,3-Dihydro-1-benzofuran-7-yl)-2-{[(6-ethyl-1-phenyl-1H-pyrazolo[3,4-d]pyrimidin-4-yl)amino]methyl}-1,1,1-trifluoro-4-methyl-2-pentanol] | < 100
CCOC(=O)c1cccc(-n2ncc3c(NCC(O)(CC(C)(C)c4cc(F)ccc4OC)C(F)(F)F)nc(C)nc32)c1 (stereo not shown) [Example 22, Ethyl 3-(4-{[4-[5-fluoro-2-(methyloxy)phenyl]-2-hydroxy-4-methyl-2-(trifluoromethyl)pentyl]amino}-6-methyl-1H-pyrazolo[3,4-d]pyrimidin-1-yl)benzoate] | < 100
CCc1nc(NCC(O)(CC(C)(C)c2cccc3c2OCC3)C(F)(F)F)c2cnn(-c3cccc(C(=O)OC)c3)c2n1 (stereo not shown) [Example 30, Methyl 3-(4-{[4-(2,3-dihydro-1-benzofuran-7-yl)-2-hydroxy-4-methyl-2-(trifluoromethyl)pentyl]amino}-6-ethyl-1H-pyrazolo[3,4-d]pyrimidin-1-yl)benzoate] | < 100
CCc1nc(NCC(O)(CC(C)(C)c2cccc3c2OCC3)C(F)(F)F)c2cnn(-c3cccnc3)c2n1 (stereo not shown) [Example 9, 4-(2,3-Dihydro-1-benzofuran-7-yl)-2-({[6-ethyl-1-(3-pyridinyl)-1H-pyrazolo[3,4-d]pyrimidin-4-yl]amino}methyl)-1,1,1-trifluoro-4-methyl-2-pentanol] | < 100
CCc1nc(NCC(O)(CC(C)(C)c2cccc3c2OCC3)C(F)(F)F)c2cnn(-c3cccc(C#N)c3)c2n1 (stereo not shown) [Example 29, 3-(4-{[4-(2,3-Dihydro-1-benzofuran-7-yl)-2-hydroxy-4-methyl-2-(trifluoromethyl)pentyl]amino}-6-ethyl-1H-pyrazolo[3,4-d]pyrimidin-1-yl)benzonitrile] | < 100
COc1ccc(F)cc1C(C)(C)CC(O)(CNc1nc(C)nc2c1cnn2-c1ccccc1)C(F)(F)F (stereo not shown) [Example 13, 1,1,1-Trifluoro-4-[5-fluoro-2-(methyloxy)phenyl]-4-methyl-2-{[(6-methyl-1-phenyl-1H-pyrazolo[3,4-d]pyrimidin-4-yl)amino]methyl}-2-pentanol] | < 100
CCc1nc(NCC(O)(CC(C)(C)c2cccc3c2OCC3)C(F)(F)F)c2cnn(-c3ccccc3F)c2n1 (stereo not shown) [Example 6, 4-(2,3-Dihydro-1-benzofuran-7-yl)-2-({[6-ethyl-1-(2-fluorophenyl)-1H-pyrazolo[3,4-d]pyrimidin-4-yl]amino}methyl)-1,1,1-trifluoro-4-methyl-2-pentanol] | < 100
COC(=O)c1cccc(-n2ncc3c(NCC(O)(CC(C)(C)c4cc(F)ccc4OC)C(F)(F)F)nc(C)nc32)c1 (stereo not shown) [Example 23, Methyl 3-(4-{[4-[5-fluoro-2-(methyloxy)phenyl]-2-hydroxy-4-methyl-2-(trifluoromethyl)pentyl]amino}-6-methyl-1H-pyrazolo[3,4-d]pyrimidin-1-yl)benzoate] | < 100
COc1ccc(F)cc1C(C)(C)CC(O)(CNc1nc(C)nc2c1cnn2-c1ccncc1)C(F)(F)F (stereo not shown) [Example 18, 1,1,1-Trifluoro-4-[5-fluoro-2-(methyloxy)phenyl]-4-methyl-2-({[6-methyl-1-(4-pyridinyl)-1H-pyrazolo[3,4-d]pyrimidin-4-yl]amino}methyl)-2-pentanol] | < 100
CCc1nc(NCC(O)(CC(C)(C)c2cccc3c2OCC3)C(F)(F)F)c2cnn(-c3ccc(F)cc3)c2n1 (stereo not shown) [Example 7, 4-(2,3-Dihydro-1-benzofuran-7-yl)-2-({[6-ethyl-1-(4-fluorophenyl)-1H-pyrazolo[3,4-d]pyrimidin-4-yl]amino}methyl)-1,1-trifluoro-4-methyl-2-pentanol] | < 100
CCc1nc(NCC(O)(CC(C)(C)c2cc(F)ccc2OC)C(F)(F)F)c2cnn(-c3ccccc3)c2n1 (stereo not shown) [Example 26, 2-{[(6-Ethyl-1-phenyl-1H-pyrazolo[3,4-d]pyrimidin-4-yl)amino]methyl}-1,1,1-trifluoro-4-[5-fluoro-2-(methyloxy)phenyl]-4-methyl-2-pentanol] | < 100
